*1 amine or outer side, *2 acyl side, *3 side chain or, on linkers, in order; H or OH if unused. Where a SMILES comes first, the peptide text is derived from it. Side-chain parts run from the residue outwards. The star is where a group is joined. γGlu = O=C(O)[C@H](CCC(=O)[*:2])N[*:1]; Palmitoyl = CCCCCCCCCCCCCCCC(=O)*
Legend:
[1] = test system: ICR mice; assay: Repeated toxicity test of ACP52CGK; assay type: in vivo, mouse; details: 100 mpk intravenously daily for 4 weeks, n = 6/group; brain, heart, liver
Method: To assess the toxicity of ACP52C, twelve 6‐weeks‐old ICR mice (six males and six females) were divided into three groups, each containing two mice: one group received a saline, another received 100 mg kg^−1 of ACP52C, and the third received 1000 mg kg^−1 of ACP52C. For each group, one mouse was intravenously injected once, and the other one was intravenously injected twice with a four‐day interval between injections. At the time of sacrifice, major organs were analyzed by H&E staining. To assess the repeated toxicity of ACP52CGK, twenty‐four 6‐weeks‐old ICR mice (twelve males and twelve females) were used, dividing them into two groups of six mice each: one group received saline, and the other received 100 mg kg^−1 of ACP52CGK. […] Body weight, water and feed consumption were measured every 3 days after injection. […] Major organs were weighed and analyzed by H&E staining. H&E‐stained tissue sections were analyzed and photographed, and the representative histological images were recorded. […]
Repeated toxicity test of ACP52CGK were analyzed in ICR mice by intravenous injection of 100 mpk of ACP52CGK daily for 4 weeks (n = 6/group). A-C) Body weight (A), water consumption (B), and food consumption (C) were measured once every 3 days after injection. D-F) Major organ weight (D), CBC (E), and blood chemistry (F) were measured after sacrifice. Data are expressed as means ± SD in (B-F). […]

[2] = test system: normal cells such as mesenchymal stem cells and embryonic stem cells; assay: Cell death in normal cells; assay type: cell-based, human
Method: performance of FQI1. Two micromoles of each Pep #5-2C and FQI1 were added to the cell culture for 2 days. Fractions of benzidine-positive stained cells were counted in MEL cells (n > 100 cells/group) treated with HMBA for 2 days. Hba-a2 gene expression at mRNA and protein levels were estimated by RT-qPCR […]
and WB, respectively. […] ANOVA […]
similar performance of Pep #5 or Pep #5-2. DNA-pull down assays for the [C4] complex (B) and the CBP […]
complexes (C). […] Two-tailed […]
formation by itself, surpassing the performance of FQI1. Co-IP assays for the [C4] complex (D) and the […]
CBP complexes (E). […] Student’s […]
than FQI1. G) Cell growth inhibition plots and GI50 values of FQI1 and ACP52C in various cancer cell lines and normal cells over peptide dose. GI50 values estimated from two independent biological replicates. […]
hESCs were cultured on the Rhodamine -labeled MEF cells. Ten micromoles of each ACP52C and FQI1 were added to the cell culture for 3 days before capturing images of cultures.

[3] = molecular target: T1, CP2c (Mus musculus, UniProt Q9ERA0); assay: DNA‐IP assay of CP2c DNA binding; assay type: biochemical; details: 0–3 µM peptide, concentration‐dependent
T1 construct: extracts from iMEL cells (day 2); endogenous in cells; host or cells: nuclear extract of HMBA-induced MEL (iMEL) cells, day 2
T1 sequence (Q9ERA0 whole entry): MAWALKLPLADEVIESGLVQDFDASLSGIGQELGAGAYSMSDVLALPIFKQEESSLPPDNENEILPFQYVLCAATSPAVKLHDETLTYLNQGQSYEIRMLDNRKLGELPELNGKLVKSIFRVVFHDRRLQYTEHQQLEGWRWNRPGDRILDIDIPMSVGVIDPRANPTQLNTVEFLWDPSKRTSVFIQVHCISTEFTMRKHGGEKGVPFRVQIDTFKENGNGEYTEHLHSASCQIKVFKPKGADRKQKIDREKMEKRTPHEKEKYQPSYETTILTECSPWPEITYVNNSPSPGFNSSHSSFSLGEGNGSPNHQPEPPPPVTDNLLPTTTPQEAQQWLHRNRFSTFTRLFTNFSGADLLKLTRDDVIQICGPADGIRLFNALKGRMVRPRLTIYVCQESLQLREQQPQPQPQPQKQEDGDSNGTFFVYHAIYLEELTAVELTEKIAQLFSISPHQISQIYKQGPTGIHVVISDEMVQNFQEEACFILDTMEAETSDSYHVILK
Method: DNA‐IP assay was performed essentially as described previously.^[ [14] ^] Each of the oligonucleotides was mixed and annealed in the TEN buffer. For the radio‐labeling of the DNA probe, the annealed DNA was incubated with a mixture of dATP, dGTP, dTTP, [α^32P]‐dCTP, and Klenow enzyme in reaction buffer (5 mM NaCl, 1 mM Tris HCl, 1 mM MgCl2, and 0.1 mM DTT) for 30 min at 25 °C, and stopped by incubation with EDTA (10 mM final) for 20 min at 75 °C. The radio‐labeled DNA probe was purified by applying the reaction mixture to ProbeQuant G‐50 micro columns (GE healthcare, GE28‐9034‐08). Whole extracts prepared from transfecting 293T cells or purified GST fused CP2c proteins (wildtype and point mutants) were incubated with a [α^32P]‐labeled DNA probe in binding buffer (4% glycerol, 10 mM Tris‐HCl, pH 7.4, 1 mM DTT, 1 mM EDTA, and 0.1% NP‐40) for 15 min at room temperature. Then 0–3 µM of peptides (Pep #5, Pep #8, Pep #5‐1, Pep #5‐2, and Pep #5‐2C) were added to the DNA‐protein mixture, and the mixtures were incubated for 15 min at room temperature (peptide sequences are listed in Table S3, Supporting Information). For IP, precleared extracts were incubated overnight at 4 °C with 1 µg of the following primary antibodies (CP2c, CP2b, and PIAS1). […] The radioactivity of the eluted probe was measured by scintillation counting.

[4] = test system: over 450 human kinases or disease‐relevant mutant variants; assay: KINOMEscan screening; assay type: binding

Structure (SMILES): CCCCCCCCCCCCCCCC(=O)N[C@@H](CCC(=O)NCCCC[C@H](NC(=O)CNC(=O)CNC(=O)[C@@H]1CCCN1C(=O)[C@H](CCCNC(=N)N)NC(=O)[C@H](CCC(N)=O)NC(=O)[C@@H]1CCCN1C(=O)[C@H](Cc1ccc(O)cc1)NC(=O)[C@H](CC(N)=O)NC(C)=O)C(=O)NCC(=O)NCC(=O)N[C@@H](CS)C(=O)N[C@@H](CCCNC(=N)N)C(=O)NCC(=O)N[C@@H](CC(=O)O)C(=O)N[C@@H](CCCCN)C(=O)NCC(=O)N1CCC[C@H]1C(=O)N[C@@H](CC(=O)O)C(=O)N[C@@H](CS)C(N)=O)C(=O)O [ACP52CGK] (Ac-NYPQRPGGK([γGlu-Palmitoyl])GGCRGDKGPDC-NH2)
- adverse effects in normal organs [1]: did not induce any adverse effects

Structure (SMILES): CCOc1ccccc1C1CC(=O)Nc2cc3c(cc21)OCO3 (stereo not shown) [FQI1, Factor Quinolinone Inhibitor 1, reference compound]
- induction of cell death in normal cells [2]: potential to induce cell death
- inhibition of DNA binding activity of CP2c [3]: proficient inhibition of DNA binding

Structure (SMILES): CC(=O)N[C@@H](CC(N)=O)C(=O)N[C@@H](Cc1ccc(O)cc1)C(=O)N1CCC[C@H]1C(=O)N[C@@H](CCC(N)=O)C(=O)N[C@@H](CCCNC(=N)N)C(=O)N1CCC[C@H]1C(=O)N[C@@H](CS)C(=O)N[C@@H](CCCNC(=N)N)C(=O)NCC(=O)N[C@@H](CC(=O)O)C(=O)N[C@@H](CCCCN)C(=O)NCC(=O)N1CCC[C@H]1C(=O)N[C@@H](CC(=O)O)C(=O)N[C@@H](CS)C(N)=O [ACP52C] (Ac-NYPQRPCRGDKGPDC-NH2)
- interactions with kinases [4]: did not exhibit interactions

Reference: PMC10667816, “A Cell‐Penetrant Peptide Disrupting the Transcription Factor CP2c Complexes Induces Cancer‐Specific Synthetic Lethality” (Advanced Science, 2023)
